The text below walks through data of BindingDB's records for doi:10.1016/j.bmcl.2018.05.060 (Universidad De Granada, 2018).

The assay addresses Choline kinase alpha (Homo sapiens, UniProt P35790). In words: Inhibition of human choline kinase alpha1 using [methyl-14C]choline as substrate assessed as reduction in rate of incorporation of 14C from [methyl-14C]choline into phosphocholine preincubated for 5 mins followed by substrate addition measured after 10 mins by scintillation counting.

Choline kinase alpha, sequence (P35790 whole entry): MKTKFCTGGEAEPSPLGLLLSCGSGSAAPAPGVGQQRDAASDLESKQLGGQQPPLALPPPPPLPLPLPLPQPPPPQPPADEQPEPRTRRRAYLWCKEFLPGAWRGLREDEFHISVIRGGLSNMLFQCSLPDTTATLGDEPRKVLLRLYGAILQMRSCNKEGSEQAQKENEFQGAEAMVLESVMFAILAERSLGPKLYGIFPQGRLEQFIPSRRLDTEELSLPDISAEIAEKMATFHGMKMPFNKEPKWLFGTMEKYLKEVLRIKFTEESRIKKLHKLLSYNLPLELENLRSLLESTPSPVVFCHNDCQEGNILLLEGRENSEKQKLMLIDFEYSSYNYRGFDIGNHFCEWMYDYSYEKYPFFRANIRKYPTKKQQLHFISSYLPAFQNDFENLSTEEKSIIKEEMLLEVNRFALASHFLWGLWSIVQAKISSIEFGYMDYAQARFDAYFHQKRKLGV

Consider `CN(c1ccccc1)c1cc[n+](Cc2ccc(OCCOc3ccc(C[n+]4ccc(N(C)c5ccccc5)c5ccccc54)cc3)cc2)c2ccccc12`, for which the IC50 (as a rule, the concentration that gives 50% inhibition) was found to be 6.85 µM.
